Measurements as given in PubChem BioAssay (NCI).
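Method: 48-hour compound exposure of cells in 96-well plates, five concentrations, linear interpolation of endpoints. TGI marks complete inhibition of growth.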

Columns and labels:
Experiment in all cases: NCI tumour cell line growth inhibition, 48 h
786-0 renal = test system: 786-0 renal
A498 renal = test system: A498 renal
A549 NSCLC = test system: A549 NSCLC
ACHN renal = test system: ACHN renal
BT-549 breast = test system: BT-549 breast
CAKI-1 renal = test system: CAKI-1 renal
CCRF-CEM leukemia = test system: CCRF-CEM leukemia
COLO 205 colon = test system: COLO 205 colon
DU-145 prostate = test system: DU-145 prostate
EKVX NSCLC = test system: EKVX NSCLC
HCC-2998 colon = test system: HCC-2998 colon
HCT-116 colon = test system: HCT-116 colon
HCT-15 colon = test system: HCT-15 colon
HL-60(TB) leukemia = test system: HL-60(TB) leukemia
HOP-62 NSCLC = test system: HOP-62 NSCLC
HOP-92 NSCLC = test system: HOP-92 NSCLC
HS 578T breast = test system: HS 578T breast
HT29 colon = test system: HT29 colon
IGROV1 ovarian = test system: IGROV1 ovarian
K-562 leukemia = test system: K-562 leukemia
KM12 colon = test system: KM12 colon
LOX IMVI melanoma = test system: LOX IMVI melanoma
M14 melanoma = test system: M14 melanoma
MALME-3M melanoma = test system: MALME-3M melanoma
MCF7 breast = test system: MCF7 breast
MDA-MB-231 breast = test system: MDA-MB-231 breast
MDA-MB-435 = test system: MDA-MB-435
MDA-N = test system: MDA-N
MOLT-4 leukemia = test system: MOLT-4 leukemia
NCI-H226 lung = test system: NCI-H226 lung
NCI-H23 lung = test system: NCI-H23 lung
NCI-H460 lung = test system: NCI-H460 lung
NCI-H522 lung = test system: NCI-H522 lung
NCI/ADR-RES ovarian = test system: NCI/ADR-RES ovarian
OVCAR-3 ovarian = test system: OVCAR-3 ovarian
OVCAR-4 ovarian = test system: OVCAR-4 ovarian
OVCAR-5 ovarian = test system: OVCAR-5 ovarian
OVCAR-8 ovarian = test system: OVCAR-8 ovarian
PC-3 prostate = test system: PC-3 prostate
RPMI-8226 leukemia = test system: RPMI-8226 leukemia
RXF 393 renal = test system: RXF 393 renal
SF-268 CNS = test system: SF-268 CNS
SF-295 CNS = test system: SF-295 CNS
SF-539 CNS = test system: SF-539 CNS
SK-MEL-2 melanoma = test system: SK-MEL-2 melanoma
SK-MEL-28 melanoma = test system: SK-MEL-28 melanoma
SK-MEL-5 melanoma = test system: SK-MEL-5 melanoma
SK-OV-3 ovarian = test system: SK-OV-3 ovarian
SN12C renal = test system: SN12C renal
SNB-19 CNS = test system: SNB-19 CNS
SNB-75 CNS = test system: SNB-75 CNS
SW-620 colon = test system: SW-620 colon
T-47D breast = test system: T-47D breast
TK-10 renal = test system: TK-10 renal
U251 CNS = test system: U251 CNS
UACC-257 melanoma = test system: UACC-257 melanoma
UACC-62 melanoma = test system: UACC-62 melanoma
UO-31 renal = test system: UO-31 renal
SR leukemia = test system: SR leukemia

Cn1cnc2c1c(=O)n(CCNCCO)c(=O)n2C
TGI (786-0 renal): > 100 µM
TGI (A498 renal): > 100 µM
TGI (A549 NSCLC): > 100 µM
TGI (ACHN renal): > 100 µM
TGI (BT-549 breast): > 100 µM
TGI (CAKI-1 renal): > 100 µM
TGI (CCRF-CEM leukemia): > 100 µM
TGI (COLO 205 colon): > 100 µM
TGI (DU-145 prostate): > 100 µM
TGI (EKVX NSCLC): > 100 µM
TGI (HCC-2998 colon): > 100 µM
TGI (HCT-116 colon): > 100 µM
TGI (HCT-15 colon): > 100 µM
TGI (HL-60(TB) leukemia): > 100 µM
TGI (HOP-62 NSCLC): > 100 µM
TGI (HOP-92 NSCLC): > 100 µM
TGI (HS 578T breast): > 100 µM
TGI (HT29 colon): > 100 µM
TGI (IGROV1 ovarian): > 100 µM
TGI (K-562 leukemia): > 100 µM
TGI (KM12 colon): > 100 µM
TGI (LOX IMVI melanoma): > 100 µM
TGI (M14 melanoma): > 100 µM
TGI (MALME-3M melanoma): > 100 µM
TGI (MCF7 breast): > 100 µM
TGI (MDA-MB-231 breast): > 100 µM
TGI (MDA-MB-435): > 100 µM
TGI (MDA-N): > 100 µM
TGI (MOLT-4 leukemia): > 100 µM
TGI (NCI-H226 lung): > 100 µM
TGI (NCI-H23 lung): > 100 µM
TGI (NCI-H460 lung): > 100 µM
TGI (NCI-H522 lung): > 100 µM
TGI (NCI/ADR-RES ovarian): > 100 µM
TGI (OVCAR-3 ovarian): > 100 µM
TGI (OVCAR-4 ovarian): > 100 µM
TGI (OVCAR-5 ovarian): > 100 µM
TGI (OVCAR-8 ovarian): > 100 µM
TGI (PC-3 prostate): > 100 µM
TGI (RPMI-8226 leukemia): > 100 µM
TGI (RXF 393 renal): > 100 µM
TGI (SF-268 CNS): > 100 µM
TGI (SF-295 CNS): > 100 µM
TGI (SF-539 CNS): > 100 µM
TGI (SK-MEL-2 melanoma): > 100 µM
TGI (SK-MEL-28 melanoma): > 100 µM
TGI (SK-MEL-5 melanoma): > 100 µM
TGI (SK-OV-3 ovarian): > 100 µM
TGI (SN12C renal): > 100 µM
TGI (SNB-19 CNS): > 100 µM
TGI (SNB-75 CNS): > 100 µM
TGI (SW-620 colon): > 100 µM
TGI (T-47D breast): > 100 µM
TGI (TK-10 renal): > 100 µM
TGI (U251 CNS): > 100 µM
TGI (UACC-257 melanoma): > 100 µM
TGI (UACC-62 melanoma): > 100 µM
TGI (UO-31 renal): > 100 µM

Cc1cccc(C)c1N1C(=O)C2c3[nH]c4ccccc4c3C3CCC(C(C)(C)C)CC3C2C1=O (stereo unspecified)
TGI (786-0 renal): 20.8 µM
TGI (A498 renal): 37.6 µM
TGI (A549 NSCLC): > 100 µM
TGI (ACHN renal): 33.7 µM
TGI (BT-549 breast): 38.2 µM
TGI (CAKI-1 renal): 26.8 µM
TGI (CCRF-CEM leukemia): 45.1 µM
TGI (COLO 205 colon): 24 µM
TGI (DU-145 prostate): 22.5 µM
TGI (EKVX NSCLC): 23.4 µM
TGI (HCC-2998 colon): 14.9 µM
TGI (HCT-116 colon): 21.3 µM
TGI (HCT-15 colon): 24.2 µM
TGI (HL-60(TB) leukemia): 35.5 µM
TGI (HOP-62 NSCLC): 13.7 µM
TGI (HOP-92 NSCLC): 23.9 µM
TGI (HS 578T breast): 44 µM
TGI (HT29 colon): 32 µM
TGI (IGROV1 ovarian): 42.6 µM
TGI (K-562 leukemia): 32.7 µM
TGI (LOX IMVI melanoma): 23.6 µM
TGI (M14 melanoma): 32 µM
TGI (MALME-3M melanoma): 28.2 µM
TGI (MDA-MB-231 breast): 24.4 µM
TGI (MDA-MB-435): > 100 µM
TGI (MDA-N): 24.4 µM
TGI (MOLT-4 leukemia): > 100 µM
TGI (NCI-H226 lung): 41 µM
TGI (NCI-H23 lung): 39.8 µM
TGI (NCI/ADR-RES ovarian): 48.8 µM
TGI (OVCAR-3 ovarian): 30.3 µM
TGI (OVCAR-5 ovarian): 55.9 µM
TGI (OVCAR-8 ovarian): 37 µM
TGI (PC-3 prostate): 20.6 µM
TGI (RPMI-8226 leukemia): > 100 µM
TGI (RXF 393 renal): 26.3 µM
TGI (SF-268 CNS): 39 µM
TGI (SF-295 CNS): 51.9 µM
TGI (SF-539 CNS): 37.5 µM
TGI (SK-MEL-2 melanoma): 33.7 µM
TGI (SK-MEL-28 melanoma): 45.5 µM
TGI (SK-MEL-5 melanoma): 28.6 µM
TGI (SK-OV-3 ovarian): > 100 µM
TGI (SN12C renal): 21.8 µM
TGI (SNB-19 CNS): > 100 µM
TGI (SR leukemia): > 100 µM
TGI (SW-620 colon): 21 µM
TGI (TK-10 renal): 33.8 µM
TGI (U251 CNS): 36.6 µM
TGI (UACC-257 melanoma): 37.5 µM
TGI (UACC-62 melanoma): 36.2 µM
TGI (UO-31 renal): 26 µM

COc1cc2c(cc1O)C1CC(CC3CCCCN31)OC(=O)/C=C\c1ccc(O)c-2c1 (stereo unspecified)
TGI (786-0 renal): > 100 µM
TGI (A498 renal): 30.6 µM
TGI (A549 NSCLC): > 100 µM
TGI (ACHN renal): > 100 µM
TGI (BT-549 breast): 67.5 µM
TGI (CAKI-1 renal): 66.4 µM
TGI (CCRF-CEM leukemia): 90.5 µM
TGI (COLO 205 colon): 83.1 µM
TGI (DU-145 prostate): 89.6 µM
TGI (EKVX NSCLC): > 100 µM
TGI (HCC-2998 colon): 36 µM
TGI (HCT-116 colon): > 100 µM
TGI (HCT-15 colon): > 100 µM
TGI (HL-60(TB) leukemia): 58.3 µM
TGI (HOP-92 NSCLC): 97.9 µM
TGI (HS 578T breast): 57.5 µM
TGI (HT29 colon): 50.4 µM
TGI (IGROV1 ovarian): > 100 µM
TGI (K-562 leukemia): > 100 µM
TGI (KM12 colon): 34.8 µM
TGI (LOX IMVI melanoma): 32.3 µM
TGI (M14 melanoma): 46.6 µM
TGI (MALME-3M melanoma): 40.2 µM
TGI (MCF7 breast): 53.2 µM
TGI (MDA-MB-231 breast): 64.8 µM
TGI (MDA-MB-435): 50.8 µM
TGI (MDA-N): > 100 µM
TGI (MOLT-4 leukemia): 60.2 µM
TGI (NCI-H226 lung): > 100 µM
TGI (NCI-H23 lung): > 100 µM
TGI (NCI-H460 lung): > 100 µM
TGI (NCI-H522 lung): 65 µM
TGI (NCI/ADR-RES ovarian): 75.7 µM
TGI (OVCAR-3 ovarian): 62 µM
TGI (OVCAR-4 ovarian): > 100 µM
TGI (OVCAR-5 ovarian): > 100 µM
TGI (OVCAR-8 ovarian): 54.2 µM
TGI (PC-3 prostate): 99.5 µM
TGI (RPMI-8226 leukemia): 89.8 µM
TGI (SF-268 CNS): 72.3 µM
TGI (SF-295 CNS): 29.1 µM
TGI (SF-539 CNS): 34.6 µM
TGI (SK-MEL-2 melanoma): 72.1 µM
TGI (SK-MEL-28 melanoma): 85.2 µM
TGI (SK-MEL-5 melanoma): 31.4 µM
TGI (SK-OV-3 ovarian): 96.7 µM
TGI (SN12C renal): > 100 µM
TGI (SNB-19 CNS): > 100 µM
TGI (SNB-75 CNS): 34.2 µM
TGI (SW-620 colon): > 100 µM
TGI (T-47D breast): 45.7 µM
TGI (TK-10 renal): 95.8 µM
TGI (U251 CNS): > 100 µM
TGI (UACC-257 melanoma): 39.7 µM
TGI (UACC-62 melanoma): 45.2 µM
TGI (UO-31 renal): 65 µM
